From patent US20260297060A1, “COMPOUNDS FOR THE DEGRADATION OF MUTANT BRAF” (C4 THERAPEUTICS, INC., priority 2023, published 2026)

Tested on: A375 human melanoma xenografts
Experiment: In vivo therapeutic efficacy in A375 human melanoma xenografts (tumor volume, T/C, TGI), Example 14
Parameters: species or system human tumor in female BALB/c nude mice
Settings: for T/C / TGI: PG-D21
Experimental: Agents were tested in the A375 human melanoma xenografts. Compound 26 and Compound 141 were administered to BALB/c nude mice bearing A375 tumors from PG-DO and dosed via PO twice a day (BID) or third a day (TIP) or dosed P daily (QD) from PG-D. Dabrafenib was administered to BALB/c nude mice bearing A375 tumors from PG-D1 and dosed via P daily (QD). Compound 26 was dosed at 1.5 mg/kg (QD), 2 mg/kg (TID), 3 mg/kg (BID), 6 mg/kg (QD) and 10 mg/kg (BID) for 21 days. Compound 141 was dosed at 0.75 mg/kg (BID), 1 mg/kg (TID), 1.5 mg/kg (BID), 3 mg/kg (QD) and 5 mg/kg (BID) for 21 days. Dabrafenib was dosed at 100 mg/kg for 21 days. This study was non-GLP.
One hundred and thirty-eight female BALB/c nude Mus Musculus mice procured from Shanghai Lingchang Biological Science and Technology Co., LTD between the ages of six to eight weeks and with body weight between eighteen and twenty-two grams were used for the study. A spare mouse was also procured.
The A375 tumor cells were maintained in vitro in DMEM medium supplemented with 10% fetal bovine serum and 1% Penicillin-Streptomycin at 37° C. in an atmosphere of 5% CO2 in air. The tumor cells were routinely sub-cultured twice weekly. The cells growing in an exponential growth phase were harvested and counted for tumor inoculation.
Each mouse was inoculated subcutaneously at the right flank with A375 cells (5×10^6) in 0.2 mL of PBS supplemented with Matrigel (PBS: Matrigel=1:1) for tumor development. Animals were grouped for efficacy study on day 15 after tumor inoculation when the average tumor volume reached 220 mm^3. The test articles administration and the animal numbers in each group are shown in the above experimental Table 75.
At the time of routine monitoring, the animals were checked daily for any effects of tumor growth and treatments on normal behavior such as mobility, food and water consumption (by looking only), body weight gain/loss (body weights were measured twice weekly), eye/hair matting and any other abnormal effect as stated in the protocol. Death and observed clinical signs were recorded on the basis of the numbers of animals within each subset.
Prior to the onset of drug treatment, mice were measured for tumor size in two dimensions using a caliper, and the tumor volume (mm^3) was calculated using formula V=0.5 a×b^2 where a and b are the long and short diameters of the tumor in mm, respectively. Mice were randomized into different treatment groups based on the tumor volume.
The major endpoint was to see if the tumor growth could be delayed or mice could be cured. The tumor size was then used for calculations of T/C value. The T/C value (in percent) is an indication of antitumor effectiveness; T and C are the mean volumes of the treated and control groups, respectively on specified day.
TGI was calculated for each group using the formula: TGI (%)=[1−(Ti−T0)/(Ci−C0)]×100; Ti is the average tumor volume of a treatment group on a given day, T0 is the average tumor volume of the treatment group on the day of treatment start, Ci is the average tumor volume of the vehicle control group on the same day with Ti, and C0 is the average tumor volume of the vehicle group on the day of treatment start.
A one-way ANOVA followed by Dunnett's multiple comparison test was performed to compare tumor volume among vehicle group (Group 1) and treatment groups (Group 2-Group 12). All data were analyzed using GraphPad Prism, ns indicates p>0.05, * indicates p<0.05, ** indicates p<0.01, *** indicates p<0.001 and **** indicates p<0.0001.
Tumor growth inhibition of Compound 26, Compound 141 and dabrafenib in the treatment of female BALB/c nude mice bearing A375 xenografts was calculated based on tumor volume measured on […]. TGI and T/C were calculated respectively and the data are detailed in Table 82.

[1] = Compound 141, 1.5 mg/kg p.o. BID × 21 days

Structure (SMILES): CCN(C)S(=O)(=O)Nc1ccc(F)c(Oc2ccc3ncn(C4CC5(CCN(C6CC7(C6)CN(c6cc8c(cc6F)c(N6CCC(=O)NC6=O)nn8C)C7)CC5)C4)c(=O)c3c2)c1C#N (stereo not drawn) [Compound 141, 6-[2-cyano-3-[[ethyl(methyl)sulfamoyl]amino]-6-fluoro-phenoxy]-3-[7-[2-[3-(2,4-dioxohexahydropyrimidin-1-yl)-5-fluoro-1-methyl-indazol-6-yl]-2-azaspiro[3.3]heptan-6-yl]-7-azaspiro[3.5]nonan-2-yl]-4-oxo-quinazoline]
- Tumor volume (1.5 mg/kg p.o. BID x 21 days, day 35 (dosing-free regrowth), mean ± SEM): 1374 ± 116 mm^3
- Tumor volume (1.5 mg/kg p.o. BID x 21 days, day 39 (dosing-free regrowth), mean ± SEM): 1709 ± 117 mm^3
- Tumor volume (1.5 mg/kg p.o. BID x 21 days, day 42 (dosing-free regrowth), mean ± SEM): 2051 ± 177 mm^3
- Tumor volume (1.5 mg/kg p.o. BID x 21 days, day 46 (dosing-free regrowth), mean ± SEM): 2593 ± 258 mm^3
- Tumor volume (1.5 mg/kg p.o. BID x 21 days, day 49 (dosing-free regrowth), mean ± SEM): 2727 ± 382 mm^3
- Tumor volume (1.5 mg/kg p.o. BID x 21 days, day 53 (dosing-free regrowth), mean ± SEM): 3079 ± 78 mm^3
- Tumor volume (3 mg/kg p.o. QD x 21 days, day 0, mean ± SEM): 220 ± 15 mm^3
- Tumor volume (3 mg/kg p.o. QD x 21 days, day 4, mean ± SEM): 253 ± 15 mm^3
- Tumor volume (3 mg/kg p.o. QD x 21 days, day 7, mean ± SEM): 214 ± 17 mm^3
- Tumor volume (3 mg/kg p.o. QD x 21 days, day 11, mean ± SEM): 169 ± 15 mm^3
- Tumor volume (3 mg/kg p.o. QD x 21 days, day 14, mean ± SEM): 144 ± 16 mm^3
- Tumor volume (3 mg/kg p.o. QD x 21 days, day 18, mean ± SEM): 172 ± 19 mm^3
- Tumor volume (3 mg/kg p.o. QD x 21 days, day 21, mean ± SEM): 208 ± 30 mm^3
- Tumor volume (3 mg/kg p.o. QD x 21 days, day 25 (dosing-free regrowth), mean ± SEM): 486 ± 63 mm^3
- Tumor volume (3 mg/kg p.o. QD x 21 days, day 28 (dosing-free regrowth), mean ± SEM): 773 ± 63 mm^3
- Tumor volume (3 mg/kg p.o. QD x 21 days, day 32 (dosing-free regrowth), mean ± SEM): 985 ± 85 mm^3
- Tumor volume (3 mg/kg p.o. QD x 21 days, day 35 (dosing-free regrowth), mean ± SEM): 1339 ± 71 mm^3
- Tumor volume (3 mg/kg p.o. QD x 21 days, day 39 (dosing-free regrowth), mean ± SEM): 1690 ± 103 mm^3
- Tumor volume (3 mg/kg p.o. QD x 21 days, day 42 (dosing-free regrowth), mean ± SEM): 2099 ± 177 mm^3
- Tumor volume (3 mg/kg p.o. QD x 21 days, day 46 (dosing-free regrowth), mean ± SEM): 2737 ± 176 mm^3
- Tumor volume (3 mg/kg p.o. QD x 21 days, day 49 (dosing-free regrowth), mean ± SEM): 3078 ± 168 mm^3
- Tumor volume (3 mg/kg p.o. QD x 21 days, day 53 (dosing-free regrowth)): 3659 mm^3
- Tumor Size on PG-D21 (Mean ± SEM) (3 mg/kg p.o. QD × 21 days): 208 ± 30 mm^3
- T/C (3 mg/kg p.o. QD × 21 days): 11.0%
- TGI (3 mg/kg p.o. QD × 21 days): 100.8%
- Tumor volume (5 mg/kg p.o. BID x 21 days, day 0, mean ± SEM): 220 ± 15 mm^3
- Tumor volume (5 mg/kg p.o. BID x 21 days, day 4, mean ± SEM): 166 ± 11 mm^3
- Tumor volume (5 mg/kg p.o. BID x 21 days, day 7, mean ± SEM): 100 ± 7 mm^3
- Tumor volume (5 mg/kg p.o. BID x 21 days, day 11, mean ± SEM): 60 ± 4 mm^3
- Tumor volume (5 mg/kg p.o. BID x 21 days, day 14, mean ± SEM): 38 ± 2 mm^3
- Tumor volume (5 mg/kg p.o. BID x 21 days, day 18, mean ± SEM): 27 ± 3 mm^3
- Tumor volume (5 mg/kg p.o. BID x 21 days, day 21, mean ± SEM): 23 ± 3 mm^3
- Tumor volume (5 mg/kg p.o. BID x 21 days, day 25 (dosing-free regrowth), mean ± SEM): 31 ± 9 mm^3
- Tumor volume (5 mg/kg p.o. BID x 21 days, day 28 (dosing-free regrowth), mean ± SEM): 56 ± 24 mm^3
- Tumor volume (5 mg/kg p.o. BID x 21 days, day 32 (dosing-free regrowth), mean ± SEM): 109 ± 40 mm^3
- Tumor volume (5 mg/kg p.o. BID x 21 days, day 35 (dosing-free regrowth), mean ± SEM): 190 ± 67 mm^3
- Tumor volume (5 mg/kg p.o. BID x 21 days, day 39 (dosing-free regrowth), mean ± SEM): 345 ± 111 mm^3
- Tumor volume (5 mg/kg p.o. BID x 21 days, day 42 (dosing-free regrowth), mean ± SEM): 484 ± 147 mm^3
- Tumor volume (5 mg/kg p.o. BID x 21 days, day 46 (dosing-free regrowth), mean ± SEM): 732 ± 181 mm^3
- Tumor volume (5 mg/kg p.o. BID x 21 days, day 49 (dosing-free regrowth), mean ± SEM): 1015 ± 308 mm^3
- Tumor volume (5 mg/kg p.o. BID x 21 days, day 53 (dosing-free regrowth), mean ± SEM): 1470 ± 351 mm^3
- Tumor volume (5 mg/kg p.o. BID x 21 days, day 56 (dosing-free regrowth), mean ± SEM): 1433 ± 181 mm^3
- Tumor Size on PG-D21 (Mean ± SEM) (5 mg/kg p.o. BID × 21 days): 23 ± 3 mm^3
- T/C (5 mg/kg p.o. BID × 21 days): 1.2%
- TGI (5 mg/kg p.o. BID × 21 days): 111.8%
- Tumor Size on PG-D21 (Mean ± SEM) [1]: 208 ± 21 mm^3
- T/C [1]: 11.1%
- TGI [1]: 100.7%
